Assay results from patent US20250129135A1, “Multi-Agonist and Use Thereof” (priority 2021, published 2025).
Starred links: 1 amine or outer side, 2 acyl side, 3 side chain; linkers in the order of their positions; H or OH if unused. Non-standard residues stand in square brackets, D forms with d. Residues, ends and D or L forms follow the SMILES beside them. Groups on a side chain read outwards from the residue. *: point of attachment. C20 diacid = O=C(O)CCCCCCCCCCCCCCCCCCC(=O)*; αMePhe(2-F) = C[C@](N)(Cc1ccccc1F)C(=O)O; γGlu = O=C(O)[C@H](CCC(=O)[*:2])N[*:1]; αMeF = C[C@](N)(Cc1ccccc1)C(=O)O; αMeL = CC(C)C[C@](C)(N)C(=O)O; AEEA = NCCOCCOCC(=O)O; Ac3c = NC1(C(=O)O)CC1; Aib = CC(C)(N)C(=O)O

Experiments:
Human GIP R = target: T1, Human GIP R (Homo sapiens, UniProt P48546); assay: cAMP (HTRF) activity in CHO cells stably overexpressing GIP receptor; assay type: cell-based; details: for Human GIP R Rel. A (Relative Activity): EC50 of human GIP / EC50 of compound; for EC50: stable transfected cell cAMP activity, at least 3 independent tests
T1 construct: expressed in transfected cells; host or cells: CHO
T1 sequence (P48546 22-466): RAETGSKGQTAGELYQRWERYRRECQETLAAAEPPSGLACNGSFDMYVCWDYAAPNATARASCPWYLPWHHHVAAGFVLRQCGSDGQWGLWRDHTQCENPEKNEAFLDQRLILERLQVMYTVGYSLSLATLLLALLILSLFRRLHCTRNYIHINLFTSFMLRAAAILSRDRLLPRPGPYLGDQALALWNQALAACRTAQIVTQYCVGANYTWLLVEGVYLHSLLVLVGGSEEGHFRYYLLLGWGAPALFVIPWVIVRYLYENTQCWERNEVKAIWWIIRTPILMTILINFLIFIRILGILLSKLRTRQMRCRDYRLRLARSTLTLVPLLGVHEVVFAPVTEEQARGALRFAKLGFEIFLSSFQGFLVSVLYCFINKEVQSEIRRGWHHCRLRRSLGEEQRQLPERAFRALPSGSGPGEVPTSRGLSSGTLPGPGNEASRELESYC
Procedure, shortened: (§1)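 Cells in HBSS are exposed to compound for 60 min at room temperature, followed by 60 min with detection reagent. EC50 (nM) is taken from concentration-response curves.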

Human GCG R = target: T2, Human GCG R (Homo sapiens, UniProt P47871); assay: cAMP (HTRF) activity in HEK-293 cells stably overexpressing human GCG receptor; assay type: cell-based; details: EC50 of human GCG / EC50 of compound
T2 construct: expressed in transfected cells; host or cells: HEK-293
Procedure, shortened: as §1

RIN-m5F cells = assay type: cell-based, rat; details: for Rel. A (Relative Activity) on RIN-m5F: relative to GLP-1(7-37)
Procedure, shortened: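 After 60 min room-temperature exposure of HBSS-suspended RIN-m5F cells to compound and another 60 min with detection reagent, cellular cAMP level was determined.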

3T3-L1 adipocytes = details: for Rel. A (Relative Activity) on 3T3-L1 adipocyte: relative to GIP
Procedure, shortened: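 Compound-induced cAMP was measured in mature 3T3-L1 adipocytes after 60 min room-temperature exposure to a 10-concentration, 3-fold dilution series, followed by 60 min with kit detection reagent and curve fitting. Differentiation used IBMX/dexamethasone/insulin (5 days), insulin with 10 uM rosiglitazone (3 days), then 2–3 days in 10% FBS.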

[1] = test system: human primary liver cells; assay type: cell-based; details: for Rel. A (Relative Activity) on human primary liver cells: relative to GCG
Procedure, shortened: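 cAMP readout after 60 min with detection reagent, following 60 min room-temperature compound incubation. Cells were primary human liver cells thawed at 37° C and resuspended in HBSS.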

Human GLP-1R = Human GLP-1R (Homo sapiens, UniProt P43220); assay: cAMP (HTRF) activity in HEK-293 cells stably overexpressing human GLP-1 receptor; assay type: cell-based; set-up: expressed in transfected cells; host or cells: HEK-293; details: for Human GLP-1R Rel. A (Relative Activity): EC50 of human GLP-1 (7-37) / EC50 of compound; for EC50: stable transfected cell cAMP activity, at least 3 independent tests
Procedure, shortened: as §1

T2 sequence (P47871 26-477): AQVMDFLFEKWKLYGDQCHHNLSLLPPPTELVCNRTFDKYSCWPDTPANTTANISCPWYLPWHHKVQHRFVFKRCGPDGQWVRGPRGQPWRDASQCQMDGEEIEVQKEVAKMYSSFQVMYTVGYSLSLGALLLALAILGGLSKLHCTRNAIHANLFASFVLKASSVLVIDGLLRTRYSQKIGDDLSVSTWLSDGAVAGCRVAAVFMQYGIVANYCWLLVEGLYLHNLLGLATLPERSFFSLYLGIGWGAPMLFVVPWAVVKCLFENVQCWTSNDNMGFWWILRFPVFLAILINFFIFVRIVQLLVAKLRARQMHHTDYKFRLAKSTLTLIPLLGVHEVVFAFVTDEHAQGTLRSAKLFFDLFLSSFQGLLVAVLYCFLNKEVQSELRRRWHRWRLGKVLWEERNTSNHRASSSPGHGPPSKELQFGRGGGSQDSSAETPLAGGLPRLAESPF
Sequence of Human GLP-1R (P43220 24-463): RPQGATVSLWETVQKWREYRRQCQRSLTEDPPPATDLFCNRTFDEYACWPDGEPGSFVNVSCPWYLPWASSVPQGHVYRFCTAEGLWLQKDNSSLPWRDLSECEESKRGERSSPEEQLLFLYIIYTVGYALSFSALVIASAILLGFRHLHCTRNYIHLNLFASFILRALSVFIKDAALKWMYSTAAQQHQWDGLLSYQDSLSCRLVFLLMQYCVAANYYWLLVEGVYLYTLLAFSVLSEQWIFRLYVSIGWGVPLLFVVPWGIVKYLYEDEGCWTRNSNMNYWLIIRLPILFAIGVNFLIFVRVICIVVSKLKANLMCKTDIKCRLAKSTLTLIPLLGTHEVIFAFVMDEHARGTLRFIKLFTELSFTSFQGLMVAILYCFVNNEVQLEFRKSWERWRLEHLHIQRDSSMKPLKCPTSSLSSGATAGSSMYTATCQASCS

Human GIP R Rel. A (Relative Activity) (Human GIP R) | EC50 (Human GIP R) | Human GCG R Rel. A (Relative Activity) (Human GCG R) | EC50 (RIN-m5F cells) | EC50 [1] | Human GLP-1R Rel. A (Relative Activity) (Human GLP-1R) | EC50 (Human GLP-1R) | Compound | Rel. A (Relative Activity) on RIN-m5F (RIN-m5F cells) | EC50 (3T3-L1 adipocytes) | Rel. A (Relative Activity) on 3T3-L1 adipocyte (3T3-L1 adipocytes) | Rel. A (Relative Activity) on human primary liver cells [1]
2262.50% | 0.008 nM | 65.52% | 0.346 nM | 1.96 nM | 200.00% | 0.022 nM | CC[C@H](C)[C@H](NC(=O)[C@H](Cc1ccccc1)NC(=O)[C@H](C)NC(=O)C(C)(C)NC(=O)[C@H](CCC(N)=O)NC(=O)[C@H](C)NC(=O)[C@H](CCCCNC(=O)COCCOCCNC(=O)COCCOCCNC(=O)CC[C@H](NC(=O)CCCCCCCCCCCCCCCCCCC(=O)O)C(=O)O)NC(=O)[C@H](CCCCN)NC(=O)[C@H](CC(=O)O)NC(=O)[C@H](CC(C)C)NC(=O)[C@](C)(CC(C)C)NC(=O)[C@@H](NC(=O)[C@H](CO)NC(=O)[C@H](Cc1ccc(O)cc1)NC(=O)[C@H](CC(=O)O)NC(=O)[C@H](CO)NC(=O)[C@@H](NC(=O)[C@](C)(Cc1ccccc1)NC(=O)[C@@H](NC(=O)CNC(=O)[C@H](CCC(N)=O)NC(=O)C(C)(C)NC(=O)[C@@H](N)Cc1ccc(O)cc1)[C@@H](C)O)[C@@H](C)O)[C@@H](C)CC)C(=O)N[C@@H](CCC(=O)O)C(=O)N[C@@H](Cc1ccc(O)cc1)C(=O)N[C@@H](CC(C)C)C(=O)N[C@@H](CC(C)C)C(=O)N[C@@H](CCC(=O)O)C(=O)N[C@H](C(=O)NCC(=O)N1CCC[C@H]1C(=O)N[C@@H](CO)C(=O)N[C@@H](CO)C(=O)NCC(=O)N[C@@H](CCC(N)=O)C(=O)N1CCC[C@H]1C(=O)N1CCC[C@H]1C(=O)NC1(C(=O)N[C@@H](CO)C(N)=O)CC1)[C@@H](C)O [Compound 35] (H-Y[Aib]QGT[αMeF]TSDYSI[αMeL]LDKK([AEEA-AEEA-γGlu-C20 diacid])AQ[Aib]AFIEYLLETGPSSGQPP[Ac3c]S-NH2; N-terminus assumed) | 298.27% | 6.01 nM | 63.28% | 198.52%
1206.67% | 0.015 nM | 69.51% | 0.176 nM | 1.04 nM | 157.14% | – | CC[C@H](C)[C@H](NC(=O)[C@H](Cc1ccccc1)NC(=O)[C@H](C)NC(=O)C(C)(C)NC(=O)[C@H](CCC(N)=O)NC(=O)[C@H](C)NC(=O)[C@H](CCCCNC(=O)COCCOCCNC(=O)COCCOCCNC(=O)CC[C@H](NC(=O)CCCCCCCCCCCCCCCCCCC(=O)O)C(=O)O)NC(=O)[C@H](CCCCN)NC(=O)[C@H](CC(=O)O)NC(=O)[C@H](CC(C)C)NC(=O)[C@](C)(CC(C)C)NC(=O)[C@@H](NC(=O)[C@H](CO)NC(=O)[C@H](Cc1ccc(O)cc1)NC(=O)[C@H](CC(=O)O)NC(=O)[C@H](CO)NC(=O)[C@@H](NC(=O)[C@](C)(Cc1ccccc1)NC(=O)[C@@H](NC(=O)CNC(=O)[C@H](CCC(N)=O)NC(=O)C(C)(C)NC(=O)[C@@H](N)Cc1ccc(O)cc1)[C@@H](C)O)[C@@H](C)O)[C@@H](C)CC)C(=O)N[C@@H](CCC(=O)O)C(=O)N[C@@H](Cc1ccccc1)C(=O)N[C@@H](CC(C)C)C(=O)N[C@@H](CC(C)C)C(=O)N[C@@H](CCC(=O)O)C(=O)NCC(=O)N[C@@H](CCCNC(=N)N)C(=O)N1CCC[C@H]1C(=O)N[C@@H](CO)C(=O)N[C@@H](CO)C(=O)NC(C)(C)C(=O)N[C@@H](Cc1c[nH]cn1)C(=O)N1CCC[C@H]1C(=O)N1CCC[C@H]1C(=O)N1CCC[C@H]1C(=O)N[C@@H](CO)C(N)=O [Compound 37] (H-Y[Aib]QGT[αMeF]TSDYSI[αMeL]LDKK([AEEA-AEEA-γGlu-C20 diacid])AQ[Aib]AFIEFLLEGRPSS[Aib]HPPPS-NH2; N-terminus assumed) | 586.36% | 2.49 nM | 152.87% | 373.06%
1206.67% | 0.015 nM | 37.25% | 0.843 nM | 2.03 nM | 56.41% | – | CC[C@H](C)[C@H](NC(=O)[C@H](Cc1ccccc1)NC(=O)[C@H](C)NC(=O)C(C)(C)NC(=O)[C@H](CCC(N)=O)NC(=O)[C@H](C)NC(=O)[C@H](CCCCNC(=O)COCCOCCNC(=O)COCCOCCNC(=O)CC[C@H](NC(=O)CCCCCCCCCCCCCCCCCCC(=O)O)C(=O)O)NC(=O)[C@H](CCCCN)NC(=O)[C@H](CC(=O)O)NC(=O)[C@H](CC(C)C)NC(=O)[C@](C)(CC(C)C)NC(=O)[C@@H](NC(=O)[C@H](CO)NC(=O)[C@H](Cc1ccc(O)cc1)NC(=O)[C@H](CC(=O)O)NC(=O)[C@H](CO)NC(=O)[C@@H](NC(=O)[C@](C)(Cc1ccccc1F)NC(=O)[C@@H](NC(=O)CNC(=O)[C@H](CCC(N)=O)NC(=O)C(C)(C)NC(=O)[C@@H](N)Cc1ccc(O)cc1)[C@@H](C)O)[C@@H](C)O)[C@@H](C)CC)C(=O)N[C@@H](CCC(=O)O)C(=O)N[C@@H](Cc1ccccc1)C(=O)N[C@@H](CC(C)C)C(=O)N[C@@H](CC(C)C)C(=O)N[C@@H](CCC(=O)O)C(=O)N[C@H](C(=O)N[C@@H](CCCNC(=N)N)C(=O)N1CCC[C@H]1C(=O)N[C@@H](CO)C(=O)N[C@@H](CO)C(=O)NC(C)(C)C(=O)N[C@@H](Cc1c[nH]cn1)C(=O)N1CCC[C@H]1C(=O)N1CCC[C@H]1C(=O)N1CCC[C@H]1C(=O)N[C@@H](CO)C(N)=O)[C@@H](C)O [Compound 39] (H-Y[Aib]QGT[αMePhe(2-F)]TSDYSI[αMeL]LDKK([AEEA-AEEA-γGlu-C20 diacid])AQ[Aib]AFIEFLLETRPSS[Aib]HPPPS-NH2) | 122.42% | 2.05 nM | 185.83% | 191.77%
247.95% | – | 70.37% | 0.136 nM | 0.907 nM | 366.67% | 0.012 nM | CC[C@H](C)[C@H](NC(=O)[C@H](Cc1ccccc1)NC(=O)[C@H](C)NC(=O)C(C)(C)NC(=O)[C@H](CCC(N)=O)NC(=O)[C@H](C)NC(=O)[C@H](CCCCNC(=O)COCCOCCNC(=O)COCCOCCNC(=O)CC[C@H](NC(=O)CCCCCCCCCCCCCCCCCCC(=O)O)C(=O)O)NC(=O)[C@H](CCCCN)NC(=O)[C@H](CC(=O)O)NC(=O)[C@H](CC(C)C)NC(=O)[C@H](CC(C)C)NC(=O)[C@@H](NC(=O)[C@H](CO)NC(=O)[C@H](Cc1ccc(O)cc1)NC(=O)[C@H](CC(=O)O)NC(=O)[C@H](CO)NC(=O)[C@@H](NC(=O)[C@](C)(Cc1ccccc1F)NC(=O)[C@@H](NC(=O)CNC(=O)[C@H](CCC(N)=O)NC(=O)C(C)(C)NC(=O)[C@@H](N)Cc1ccc(O)cc1)[C@@H](C)O)[C@@H](C)O)[C@@H](C)CC)C(=O)N[C@@H](CCC(=O)O)C(=O)N[C@@H](Cc1ccccc1)C(=O)N[C@@H](CC(C)C)C(=O)N[C@@H](CC(C)C)C(=O)N[C@@H](CCC(=O)O)C(=O)N[C@@H](CO)C(=O)N[C@@H](Cc1c[nH]cn1)C(=O)N1CCC[C@H]1C(=O)N[C@@H](CO)C(=O)N[C@@H](CO)C(=O)NC(C)(C)C(=O)N[C@@H](Cc1c[nH]cn1)C(=O)N1CCC[C@H]1C(=O)N1CCC[C@H]1C(=O)NC1(C(=O)N[C@@H](CO)C(N)=O)CC1 [Compound 41] (H-Y[Aib]QGT[αMePhe(2-F)]TSDYSILLDKK([AEEA-AEEA-γGlu-C20 diacid])AQ[Aib]AFIEFLLESHPSS[Aib]HPP[Ac3c]S-NH2; N-terminus assumed) | 758.82% | 1.51 nM | 252.12% | 429.00%
